Values after ≈ are worked out from the molar mass of the structure shown. “Also recorded” adds a separate entry of the source.
System: not listed separately
Experiment: Solubility in water by HPLC analysis
Details: water

Which solubility at 24 h does the source give for `CC(C)(C)c1cc(C(=O)/C(C#N)=N/Nc2ccc(F)c(Cl)c2)no1` [Compound 31, 2-(5-tert-Butylisoxazol-3-yl)-N′-(3-chloro-4-fluorophenyl)-2-oxoacetohydrazonoyl Cyanide] here?
Its solubility at 24 h is 82.6 ± 3.6 µg/mL (≈ 237 µM).

With `CC(C)(C)c1cc(C(=O)/C(C#N)=N/Nc2cc(Cl)c(Cl)c(Cl)c2)no1` [Compound 35, 2-(5-tert-Butylisoxazol-3-yl)-2-oxo-N′-(3,4,5-trichlorophenyl)acetohydrazonoyl Cyanide] as the compound, how does the solubility at 24 h read?
The solubility at 24 h was 12.7 ± 1 µg/mL (≈ 31.8 µM).

For `CC(C)(C)c1cc(C(=O)/C(C#N)=N/Nc2cc(F)c(F)c(F)c2)no1` [Compound 36, 2-(5-tert-Butylisoxazol-3-yl)-2-oxo-N′-(3,4,5-trifluorophenyl)acetohydrazonoyl Cyanide], which solubility at 24 h is on record?
The solubility at 24 h was 75.7 ± 7.1 µg/mL (≈ 216 µM).

With `N#C/C(=N\Nc1cc(Cl)c(Cl)c(Cl)c1)C(=O)c1cc(C2CCCCC2)on1` [Compound 47, 2-(5-Cyclohexylisoxazol-3-yl)-2-oxo-N′-(3,4,5-trichlorophenyl)acetohydrazonoyl Cyanide] as the compound, how does the solubility at 24 h read?
The solubility at 24 h was 10.1 ± 0.79 µg/mL (≈ 23.7 µM).

Target: T1, EPAC1 (Homo sapiens, UniProt O95398)
T1 sequence (O95398 1-881 isoform O95398-3): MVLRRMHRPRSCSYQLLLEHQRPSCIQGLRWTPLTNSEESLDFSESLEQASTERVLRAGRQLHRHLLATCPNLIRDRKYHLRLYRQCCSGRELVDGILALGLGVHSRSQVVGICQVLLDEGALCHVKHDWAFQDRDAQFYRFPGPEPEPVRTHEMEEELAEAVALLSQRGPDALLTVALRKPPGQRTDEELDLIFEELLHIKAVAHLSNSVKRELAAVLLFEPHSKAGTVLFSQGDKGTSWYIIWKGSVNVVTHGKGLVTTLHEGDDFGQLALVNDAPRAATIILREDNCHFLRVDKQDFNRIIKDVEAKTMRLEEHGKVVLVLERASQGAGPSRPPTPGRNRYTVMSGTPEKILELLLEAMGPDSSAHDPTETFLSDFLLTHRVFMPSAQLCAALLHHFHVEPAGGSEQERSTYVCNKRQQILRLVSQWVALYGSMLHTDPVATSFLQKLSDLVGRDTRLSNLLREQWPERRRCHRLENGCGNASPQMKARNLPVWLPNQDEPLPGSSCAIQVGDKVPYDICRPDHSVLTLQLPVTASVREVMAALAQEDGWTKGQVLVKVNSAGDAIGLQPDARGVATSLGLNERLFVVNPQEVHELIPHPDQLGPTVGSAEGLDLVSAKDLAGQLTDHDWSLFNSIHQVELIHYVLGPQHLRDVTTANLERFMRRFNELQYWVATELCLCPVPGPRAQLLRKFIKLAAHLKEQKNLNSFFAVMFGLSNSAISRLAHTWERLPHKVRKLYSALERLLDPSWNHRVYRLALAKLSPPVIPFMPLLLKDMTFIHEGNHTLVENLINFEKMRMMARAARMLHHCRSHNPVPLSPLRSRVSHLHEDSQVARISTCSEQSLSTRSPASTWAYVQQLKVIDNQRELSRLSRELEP
Experiment: In vitro EPAC1 GEF activity assay
Assay type: biochemical
Details: not given

With `CC(C)(C)c1cc(C(=O)/C(C#N)=N/Nc2cc(Cl)cc(Cl)c2)no1` [Compound 22, 2-(5-tert-Butylisoxazol-3-yl)-N′-(3,5-dichlorophenyl)-2-oxoacetohydrazonoyl Cyanide] as the compound, how does the IC50 read?
The IC50 was under 5 µM.

Target: T2, EPAC2 (Mus musculus, UniProt Q9EQZ6)
T2 sequence (Q9EQZ6 1-993 isoform Q9EQZ6-3): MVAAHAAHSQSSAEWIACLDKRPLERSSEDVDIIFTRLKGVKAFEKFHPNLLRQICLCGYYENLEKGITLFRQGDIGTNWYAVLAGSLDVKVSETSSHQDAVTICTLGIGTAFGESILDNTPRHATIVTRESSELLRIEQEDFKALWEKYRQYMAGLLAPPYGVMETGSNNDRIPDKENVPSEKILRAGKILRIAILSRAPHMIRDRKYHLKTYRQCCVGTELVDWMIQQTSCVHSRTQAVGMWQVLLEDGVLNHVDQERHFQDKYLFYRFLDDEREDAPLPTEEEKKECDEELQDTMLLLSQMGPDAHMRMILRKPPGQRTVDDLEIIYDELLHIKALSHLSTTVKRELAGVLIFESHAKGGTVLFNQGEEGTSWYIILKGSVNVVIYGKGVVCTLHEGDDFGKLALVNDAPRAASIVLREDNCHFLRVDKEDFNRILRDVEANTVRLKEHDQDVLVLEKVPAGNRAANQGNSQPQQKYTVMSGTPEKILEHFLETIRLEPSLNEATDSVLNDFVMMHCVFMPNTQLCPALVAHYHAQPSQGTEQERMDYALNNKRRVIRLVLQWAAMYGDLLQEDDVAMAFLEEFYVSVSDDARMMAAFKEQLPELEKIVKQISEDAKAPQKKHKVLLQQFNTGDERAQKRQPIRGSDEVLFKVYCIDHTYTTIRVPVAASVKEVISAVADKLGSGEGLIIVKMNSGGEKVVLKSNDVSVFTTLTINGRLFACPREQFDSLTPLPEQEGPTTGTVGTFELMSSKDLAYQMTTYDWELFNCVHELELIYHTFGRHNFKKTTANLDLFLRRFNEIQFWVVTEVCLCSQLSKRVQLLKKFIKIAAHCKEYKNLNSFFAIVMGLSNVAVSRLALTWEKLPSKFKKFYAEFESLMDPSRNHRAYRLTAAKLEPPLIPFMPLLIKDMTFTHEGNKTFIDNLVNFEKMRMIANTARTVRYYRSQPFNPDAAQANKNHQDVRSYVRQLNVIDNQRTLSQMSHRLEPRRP
Experiment: 8-NBD-cAMP competition assay
Details: 8-NBD-cAMP competition

For `CC(=O)c1cccc(N/N=C(\C#N)C(=O)c2cc(C(C)(C)C)on2)c1` [Compound 17, N′-(3-Acetylphenyl)-2-(5-tert-butylisoxazol-3-yl)-2-oxoacetohydrazonoyl Cyanide], which “EPAC2 binding activity in words” value is on record?
The value was “dramatic loss of activity”.

Which “EPAC2 binding activity in words” value does the source give for `COc1cccc(N/N=C(\C#N)C(=O)c2cc(C(C)(C)C)on2)c1` [Compound 18, 2-(5-tert-Butylisoxazol-3-yl)-N′-(3-methoxyphenyl)-2-oxoacetohydrazonoyl Cyanide] here?
The value was “significant loss of activity”.

Which “EPAC2 binding activity in words” value does the source give for `CC(C)(C)c1cc(C(=O)/C(C#N)=N/Nc2cccc(CO)c2)no1` [Compound 19, 2-(5-tert-Butylisoxazol-3-yl)-N′-(3-(hydroxymethyl)phenyl)-2-oxoacetohydrazonoyl Cyanide] here?
The value was “significant loss of activity”.

With `N#C/C(=N\Nc1cccc(Cl)c1)C(=O)c1cc(-c2ccccc2)on1` [Compound 41, N′-(3-Chlorophenyl)-2-oxo-2-(5-phenylisoxazol-3-yl)-acetohydrazonoyl Cyanide] as the compound, how does the “EPAC2 binding activity in words” value read?
Its value is “totally inactive”.

For `N#C/C(=N\Nc1cc(Cl)c(Cl)c(Cl)c1)C(=O)c1cc(-c2ccccc2)on1` [Compound 48, N′-(3,4,5-Trichlorophenyl)-2-oxo-2-(5-phenylisoxazol-3-yl)-acetohydrazonoyl Cyanide], which “EPAC2 binding activity in words” value is on record?
The value was “totally inactive”.

With `CC(C)(C)c1cc(NC(=O)C(C#N)=NNc2cccc(Cl)c2)no1` [Compound 51, N-(5-tert-Butyl-isoxazol-3-yl)-2-[(3-chlorophenyl)-hydrazono]-2-cyanoacetamide] as the compound, how does the “EPAC2 binding activity in words” value read?
The value was “completely inactive”.

Which “EPAC2 binding activity in words” value does the source give for `Cc1cc(NC(=O)C(C#N)=NNc2cccc(Cl)c2)no1` [Compound 52, 2-[(3-Chlorophenyl)-hydrazono]-2-cyano-N-(5-methyl-isoxazol-3-yl)acetamide] here?
The value was “completely inactive”.

Which “EPAC2 binding activity in words” value does the source give for `CC(C)(C)c1cc(NC(=O)c2cccc(Cl)c2)no1` [Compound 53, N-(5-(tert-Butyl)isoxazol-3-yl)-3-chlorobenzamide] here?
The value was “entire loss of potency; also recorded: no significant activity”.

With `CC(C)(C)c1cc(NC(=O)Nc2cccc(Cl)c2)no1` [Compound 54, 1-(5-tert-Butylisoxazol-3-yl)-3-(3-chlorophenyl)urea] as the compound, how does the “EPAC2 binding activity in words” value read?
The value was “entire loss of potency; also recorded: no significant activity”.

With `CC(C)(C)c1cc(C(=O)Nc2cccc(Cl)c2)no1` [Compound 55, 5-tert-Butyl-N-(3-chlorophenyl)isoxazole-3-carboxamide] as the compound, how does the “EPAC2 binding activity in words” value read?
Its value is “entire loss of potency; also recorded: no significant activity”.

Which “EPAC2 binding activity in words” value does the source give for `CC(C)(C)c1cc(C(=O)N/N=C/c2cccc(Cl)c2)no1` [Compound 56, (E)-5-(tert-Butyl)-N′-(3-chlorobenzylidene)isoxazole-3-carbohydrazide] here?
Its value is “entire loss of potency; also recorded: no significant activity”.

Which “EPAC2 binding activity in words” value does the source give for `CC(C)(C)c1cc(-c2n[nH]c(N)c2/N=N/c2cccc(Cl)c2)no1` [Compound 57, 3-(5-tert-Butylisoxazol-3-yl)-4-((3-chlorophenyl)diazenyl)-1H-pyrazol-5-amine] here?
Its value is “entire loss of potency; also recorded: no significant activity”.

Same assay, conditions: vs compound 1

With `CC(C)(C)c1cc(C(=O)/C(C#N)=N/Nc2ccccc2)no1` [Compound 8, 2-(5-tert-Butylisoxazol-3-yl)-N′-phenyl-2-oxoacetohydrazonoyl Cyanide] as the compound, how does the “fold loss of EPAC2 binding affinity / inhibitory activity in comparison with 1” value read?
The value was about 7 fold.

For `CC(C)(C)c1cc(C(=O)/C(C#N)=N/Nc2ccccc2Cl)no1` [Compound 9, 2-(5-tert-Butylisoxazol-3-yl)-N′-(2-chlorophenyl)-2-oxoacetohydrazonoyl Cyanide], which “fold loss of EPAC2 binding affinity / inhibitory activity in comparison with 1” value is on record?
Its value is 3 fold.

Which “fold loss of EPAC2 binding affinity / inhibitory activity in comparison with 1” value does the source give for `CC(C)(C)c1cc(C(=O)/C(C#N)=N/Nc2ccc(Cl)cc2)no1` [Compound 10, 2-(5-tert-Butylisoxazol-3-yl)-N′-(4-chlorophenyl)-2-oxoacetohydrazonoyl Cyanide] here?
The value was 3 fold.

Which “fold more potent than parent compound 1” value does the source give for `CC(C)(C)c1cc(C(=O)/C(C#N)=N/Nc2cc(Cl)cc(Cl)c2)no1` [Compound 22, 2-(5-tert-Butylisoxazol-3-yl)-N′-(3,5-dichlorophenyl)-2-oxoacetohydrazonoyl Cyanide] here?
The value was “about 5 fold”.

For `CC(C)(C)c1cc(C(=O)/C(C#N)=N/Nc2ccc(Cl)c(Cl)c2)no1` [Compound 23, 2-(5-tert-Butylisoxazol-3-yl)-N′-(3,4-dichlorophenyl)-2-oxoacetohydrazonoyl Cyanide], which “fold more potent than parent compound 1” value is on record?
The value was about 3 fold.

Same assay, conditions: vs compound 8

With `CC(C)(C)c1cc(C(=O)/C(C#N)=N/Nc2cccc(Br)c2)no1` [Compound 11, 2-(5-tert-Butylisoxazol-3-yl)-N′-(3-bromophenyl)-2-oxoacetohydrazonoyl Cyanide] as the compound, how does the “fold increase in potency compared to nonsubstituted analogue 8” value read?
The value was 3–4 fold.

For `CC(C)(C)c1cc(C(=O)/C(C#N)=N/Nc2cccc(F)c2)no1` [Compound 12, 2-(5-tert-Butylisoxazol-3-yl)-N′-(3-fluorophenyl)-2-oxoacetohydrazonoyl Cyanide], which “fold increase in potency compared to nonsubstituted analogue 8” value is on record?
The value was 3–4 fold.

For `CC(C)(C)c1cc(C(=O)/C(C#N)=N/Nc2cccc(C(F)(F)F)c2)no1` [Compound 13, 2-(5-tert-Butylisoxazol-3-yl)-N′-(3-trifluoromethylphenyl)-2-oxoacetohydrazonoyl Cyanide], which “fold increase in potency compared to nonsubstituted analogue 8” value is on record?
Its value is “approximately 5 fold”.

With `CC(C)(C)c1cc(C(=O)/C(C#N)=N/Nc2cccc([N+](=O)[O-])c2)no1` [Compound 14, 2-(5-tert-Butylisoxazol-3-yl)-N′-(3-nitrophenyl)-2-oxoacetohydrazonoyl Cyanide] as the compound, how does the “fold increase in potency compared to nonsubstituted analogue 8” value read?
The value was “about 2 fold”.

For `Cc1cccc(N/N=C(\C#N)C(=O)c2cc(C(C)(C)C)on2)c1` [Compound 20, 2-(5-tert-Butylisoxazol-3-yl)-2-oxo-N′-m-tolylacetohydrazonoyl Cyanide], which “fold increase in potency compared to nonsubstituted analogue 8” value is on record?
The value was “about 2 fold”.
